# Results reported in ChEMBL document CHEMBL3885881, “DrugMatrix”.
# Organism: Rattus norvegicus
# Assay: DrugMatrix - Regimen: Daily Repeat
# Assay type: toxicity, organism-based, Sprague-Dawley
# Parameters: regimen Daily Repeat, gender Male, age 6-8 weeks
# Settings: in vivo, po, route oral GAVAGE, […]; for ABSOLUTE BASOPHIL / ABSOLUTE EOSINOPHIL / ABSOLUTE LYMPHOCYTE / ABSOLUTE MONOCYTE / ABSOLUTE SEGMENTED NEUTROPHIL / BASOPHIL / EOSINOPHIL / ERYTHROCYTE COUNT / HEMATOCRIT / HEMOGLOBIN / LEUKOCYTE COUNT / LYMPHOCYTE / MEAN CORPUSCULAR HEMOGLOBIN / MEAN CORPUSCULAR HEMOGLOBIN CONCENTRATION / MEAN CORPUSCULAR VOLUME / MONOCYTE / NEUTROPHIL / NUCLEATED RED BLOOD CELLS / PLATELET COUNT: tissue Blood; for ALANINE AMINOTRANSFERASE / ALBUMIN / ALKALINE PHOSPHATASE / ASPARTATE AMINOTRANSFERASE / BLOOD UREA NITROGEN / CARBON DIOXIDE / CHLORIDE / CHOLESTEROL / CREATINE PHOSPHOKINASE / CREATININE / GLUCOSE / LACTATE DEHYDROGENASE / LIPASE / PHOSPHORUS / POTASSIUM / SODIUM / TOTAL BILIRUBIN / TOTAL PROTEIN / URIC ACID: tissue Plasma
# [1] = 0 mg/kg, 72 h, dose level Control, time 3 day
# [2] = 0 mg/kg, 120 h, dose level Control, time 5 day
# [3] = 100 mg/kg, 72 h, dose level Low, time 3 day
smiles,measurement,setting,value
CCCC[C@@H](CC)COC(=O)c1ccccc1C(=O)OC[C@@H](CC)CCCC [BIS(2-ETHYLHEXYL)PHTHALATE],ABSOLUTE BASOPHIL,[1],0 CELLS/uL
same,ABSOLUTE EOSINOPHIL,[1],13.67 CELLS/uL
same,ABSOLUTE LYMPHOCYTE,[1],10069.5 CELLS/uL
same,ABSOLUTE MONOCYTE,[1],50 CELLS/uL
same,ABSOLUTE SEGMENTED NEUTROPHIL,[1],516.83 CELLS/uL
same,BASOPHIL,[1],0%
same,EOSINOPHIL,[1],0.17%
same,ERYTHROCYTE COUNT,[1],5.44 x10E6/uL
same,HEMATOCRIT,[1],33.88%
same,HEMOGLOBIN,[1],13.23 G/DL
same,LEUKOCYTE COUNT,[1],10.65 x10E3/uL
same,LYMPHOCYTE,[1],94.67%
same,MEAN CORPUSCULAR HEMOGLOBIN,[1],24.37 pg
same,MEAN CORPUSCULAR HEMOGLOBIN CONCENTRATION,[1],39.05 G/DL
same,MEAN CORPUSCULAR VOLUME,[1],62.38 fL
same,MONOCYTE,[1],0.67%
same,NEUTROPHIL,[1],4.5%
same,NUCLEATED RED BLOOD CELLS,[1],0.33 /100WBC
same,PLATELET COUNT,[1],414.5 x10E3/uL
same,ALANINE AMINOTRANSFERASE,[1],72 u/L
same,ALBUMIN,[1],3.75 G/DL
same,ALKALINE PHOSPHATASE,[1],375 u/L
same,ASPARTATE AMINOTRANSFERASE,[1],87.5 u/L
same,BLOOD UREA NITROGEN,[1],14 mg/dL
same,CARBON DIOXIDE,[1],27.5 mmol/L
same,CHLORIDE,[1],95.83 MEQ/L
same,CHOLESTEROL,[1],68.5 mg/dL
same,CREATINE PHOSPHOKINASE,[1],284.33 u/L
same,CREATININE,[1],0.16 mg/dL
same,GLUCOSE,[1],156.67 mg/dL
same,LACTATE DEHYDROGENASE,[1],101.83 u/L
same,LIPASE,[1],9.67 u/L
same,PHOSPHORUS,[1],10.33 mg/dL
same,POTASSIUM,[1],5.22 MEQ/L
same,SODIUM,[1],137.67 MEQ/L
same,TOTAL BILIRUBIN,[1],0.13 mg/dL
same,TOTAL PROTEIN,[1],5.43 G/DL
same,URIC ACID,[1],0.8 mg/dL
same,ABSOLUTE BASOPHIL,[2],0 CELLS/uL
same,ABSOLUTE EOSINOPHIL,[2],20.67 CELLS/uL
same,ABSOLUTE LYMPHOCYTE,[2],11518.33 CELLS/uL
same,ABSOLUTE MONOCYTE,[2],47 CELLS/uL
same,ABSOLUTE SEGMENTED NEUTROPHIL,[2],614 CELLS/uL
same,BASOPHIL,[2],0%
same,EOSINOPHIL,[2],0.17%
same,ERYTHROCYTE COUNT,[2],5.61 x10E6/uL
same,HEMATOCRIT,[2],34.25%
same,HEMOGLOBIN,[2],13.38 G/DL
same,LEUKOCYTE COUNT,[2],12.2 x10E3/uL
same,LYMPHOCYTE,[2],94.33%
same,MEAN CORPUSCULAR HEMOGLOBIN,[2],23.83 pg
same,MEAN CORPUSCULAR HEMOGLOBIN CONCENTRATION,[2],39.08 G/DL
same,MEAN CORPUSCULAR VOLUME,[2],61.03 fL
same,MONOCYTE,[2],0.33%
same,NEUTROPHIL,[2],5.17%
same,NUCLEATED RED BLOOD CELLS,[2],0 /100WBC
same,PLATELET COUNT,[2],941.83 x10E3/uL
same,ALANINE AMINOTRANSFERASE,[2],68.83 u/L
same,ALBUMIN,[2],4.12 G/DL
same,ALKALINE PHOSPHATASE,[2],492.67 u/L
same,ASPARTATE AMINOTRANSFERASE,[2],83.33 u/L
same,BLOOD UREA NITROGEN,[2],14 mg/dL
same,CARBON DIOXIDE,[2],37 mmol/L
same,CHLORIDE,[2],98.67 MEQ/L
same,CHOLESTEROL,[2],56.5 mg/dL
same,CREATINE PHOSPHOKINASE,[2],167.33 u/L
same,CREATININE,[2],0.17 mg/dL
same,GLUCOSE,[2],157.5 mg/dL
same,LACTATE DEHYDROGENASE,[2],104.83 u/L
same,LIPASE,[2],10 u/L
same,PHOSPHORUS,[2],10.43 mg/dL
same,POTASSIUM,[2],5.46 MEQ/L
same,SODIUM,[2],143.87 MEQ/L
same,TOTAL BILIRUBIN,[2],0.17 mg/dL
same,TOTAL PROTEIN,[2],5.72 G/DL
same,URIC ACID,[2],0.85 mg/dL
same,ABSOLUTE BASOPHIL,[3],0 CELLS/uL
same,ABSOLUTE EOSINOPHIL,[3],23 CELLS/uL
same,ABSOLUTE LYMPHOCYTE,[3],7479.67 CELLS/uL
same,ABSOLUTE MONOCYTE,[3],44.67 CELLS/uL
same,ABSOLUTE SEGMENTED NEUTROPHIL,[3],819.33 CELLS/uL
same,BASOPHIL,[3],0%
same,EOSINOPHIL,[3],0.33%
same,ERYTHROCYTE COUNT,[3],5.6 x10E6/uL
same,HEMATOCRIT,[3],35.03%
same,HEMOGLOBIN,[3],13.73 G/DL
same,LEUKOCYTE COUNT,[3],8.37 x10E3/uL
same,LYMPHOCYTE,[3],89%
same,MEAN CORPUSCULAR HEMOGLOBIN,[3],24.5 pg
same,MEAN CORPUSCULAR HEMOGLOBIN CONCENTRATION,[3],39.17 G/DL
same,MEAN CORPUSCULAR VOLUME,[3],62.6 fL
same,MONOCYTE,[3],0.67%
same,NEUTROPHIL,[3],10%
same,NUCLEATED RED BLOOD CELLS,[3],0 /100WBC
same,PLATELET COUNT,[3],750.33 x10E3/uL
same,ALANINE AMINOTRANSFERASE,[3],89.33 u/L
same,ALBUMIN,[3],3.97 G/DL
same,ALKALINE PHOSPHATASE,[3],408.33 u/L
same,ASPARTATE AMINOTRANSFERASE,[3],88.67 u/L
same,BLOOD UREA NITROGEN,[3],14 mg/dL
same,CARBON DIOXIDE,[3],26.67 mmol/L
same,CHLORIDE,[3],96 MEQ/L
same,CHOLESTEROL,[3],60 mg/dL
same,CREATINE PHOSPHOKINASE,[3],210.67 u/L
same,CREATININE,[3],0.11 mg/dL
same,GLUCOSE,[3],148.33 mg/dL
same,LACTATE DEHYDROGENASE,[3],81 u/L
same,LIPASE,[3],10.33 u/L
same,PHOSPHORUS,[3],10 mg/dL
same,POTASSIUM,[3],5.11 MEQ/L
same,SODIUM,[3],138.1 MEQ/L
same,TOTAL BILIRUBIN,[3],0.17 mg/dL
same,TOTAL PROTEIN,[3],5.5 G/DL
same,URIC ACID,[3],0.63 mg/dL
